Measurements from paper PMC6704710, “Preclinical evaluation of 3D185, a novel potent inhibitor of FGFR1/2/3 and CSF-1R, in FGFR-dependent and macrophage-dominant cancer models” (Journal of Experimental & Clinical Cancer Research : CR, 2019).

Experiments:
Test in all cases: Eurofins kinase panel
Type in all cases: biochemical
Settings in all cases: read-out: Inhibition rate (%)
CaMKIV(h) = target: T1, CaMKIV(h) (Homo sapiens, UniProt Q16566)
T1 construct: purchased Eurofins (KinaseProfiler)
T1 sequence (Q16566 1-473): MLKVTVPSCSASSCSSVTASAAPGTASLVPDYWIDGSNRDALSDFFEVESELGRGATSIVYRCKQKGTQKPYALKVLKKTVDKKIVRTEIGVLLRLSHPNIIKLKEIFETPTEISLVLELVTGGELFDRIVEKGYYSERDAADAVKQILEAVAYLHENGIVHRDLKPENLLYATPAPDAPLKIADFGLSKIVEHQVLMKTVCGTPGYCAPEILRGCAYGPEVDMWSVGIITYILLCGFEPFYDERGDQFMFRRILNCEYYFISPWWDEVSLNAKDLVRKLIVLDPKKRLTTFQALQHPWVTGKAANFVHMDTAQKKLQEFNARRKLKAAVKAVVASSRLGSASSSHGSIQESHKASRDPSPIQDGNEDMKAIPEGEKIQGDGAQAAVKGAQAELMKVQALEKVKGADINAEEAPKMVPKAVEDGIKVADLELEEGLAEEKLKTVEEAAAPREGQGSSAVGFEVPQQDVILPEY

Tec(h) activated = target: T2, Tec(h) activated (Homo sapiens, UniProt P42680)
T2 construct: purchased Eurofins (KinaseProfiler)
T2 sequence (P42680 1-631): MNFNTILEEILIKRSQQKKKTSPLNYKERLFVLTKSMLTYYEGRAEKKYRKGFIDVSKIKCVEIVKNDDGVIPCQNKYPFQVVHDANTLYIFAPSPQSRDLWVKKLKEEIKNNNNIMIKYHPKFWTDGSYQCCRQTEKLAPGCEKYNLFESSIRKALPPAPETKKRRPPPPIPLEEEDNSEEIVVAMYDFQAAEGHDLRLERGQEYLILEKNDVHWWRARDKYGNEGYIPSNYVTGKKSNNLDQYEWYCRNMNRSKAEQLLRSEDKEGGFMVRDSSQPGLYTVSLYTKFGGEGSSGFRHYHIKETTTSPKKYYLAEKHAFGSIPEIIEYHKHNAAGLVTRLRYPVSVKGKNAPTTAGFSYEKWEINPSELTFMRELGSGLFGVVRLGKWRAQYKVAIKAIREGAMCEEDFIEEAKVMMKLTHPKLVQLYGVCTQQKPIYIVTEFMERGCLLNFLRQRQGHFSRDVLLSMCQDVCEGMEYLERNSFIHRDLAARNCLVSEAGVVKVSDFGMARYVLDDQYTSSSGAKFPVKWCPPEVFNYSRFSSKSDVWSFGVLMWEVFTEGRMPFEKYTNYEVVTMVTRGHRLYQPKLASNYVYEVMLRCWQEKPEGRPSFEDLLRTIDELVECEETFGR

PKCζ(h) = target: T3, PKCζ(h) (Homo sapiens, UniProt Q05513)
T3 construct: purchased Eurofins (KinaseProfiler)
T3 sequence (Q05513 1-592): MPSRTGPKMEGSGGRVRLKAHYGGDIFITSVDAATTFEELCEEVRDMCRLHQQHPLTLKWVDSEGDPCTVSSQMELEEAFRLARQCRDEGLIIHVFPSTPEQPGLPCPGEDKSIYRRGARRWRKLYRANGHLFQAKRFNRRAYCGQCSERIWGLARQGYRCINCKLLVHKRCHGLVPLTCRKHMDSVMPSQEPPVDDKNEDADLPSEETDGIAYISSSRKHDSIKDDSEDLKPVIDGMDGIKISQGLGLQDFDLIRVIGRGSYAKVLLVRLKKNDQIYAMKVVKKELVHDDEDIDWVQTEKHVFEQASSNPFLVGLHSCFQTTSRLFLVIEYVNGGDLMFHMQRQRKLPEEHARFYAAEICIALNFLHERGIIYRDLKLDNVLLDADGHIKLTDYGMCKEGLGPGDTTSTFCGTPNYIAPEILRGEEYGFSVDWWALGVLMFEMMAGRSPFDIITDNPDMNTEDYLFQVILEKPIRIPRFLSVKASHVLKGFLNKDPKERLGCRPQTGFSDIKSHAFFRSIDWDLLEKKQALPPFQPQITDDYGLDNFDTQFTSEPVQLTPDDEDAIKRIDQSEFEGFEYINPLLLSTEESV

DDR2(h) = target: T4, DDR2(h) (Homo sapiens, UniProt Q16832)
T4 construct: purchased Eurofins (KinaseProfiler)
T4 sequence (Q16832 22-855): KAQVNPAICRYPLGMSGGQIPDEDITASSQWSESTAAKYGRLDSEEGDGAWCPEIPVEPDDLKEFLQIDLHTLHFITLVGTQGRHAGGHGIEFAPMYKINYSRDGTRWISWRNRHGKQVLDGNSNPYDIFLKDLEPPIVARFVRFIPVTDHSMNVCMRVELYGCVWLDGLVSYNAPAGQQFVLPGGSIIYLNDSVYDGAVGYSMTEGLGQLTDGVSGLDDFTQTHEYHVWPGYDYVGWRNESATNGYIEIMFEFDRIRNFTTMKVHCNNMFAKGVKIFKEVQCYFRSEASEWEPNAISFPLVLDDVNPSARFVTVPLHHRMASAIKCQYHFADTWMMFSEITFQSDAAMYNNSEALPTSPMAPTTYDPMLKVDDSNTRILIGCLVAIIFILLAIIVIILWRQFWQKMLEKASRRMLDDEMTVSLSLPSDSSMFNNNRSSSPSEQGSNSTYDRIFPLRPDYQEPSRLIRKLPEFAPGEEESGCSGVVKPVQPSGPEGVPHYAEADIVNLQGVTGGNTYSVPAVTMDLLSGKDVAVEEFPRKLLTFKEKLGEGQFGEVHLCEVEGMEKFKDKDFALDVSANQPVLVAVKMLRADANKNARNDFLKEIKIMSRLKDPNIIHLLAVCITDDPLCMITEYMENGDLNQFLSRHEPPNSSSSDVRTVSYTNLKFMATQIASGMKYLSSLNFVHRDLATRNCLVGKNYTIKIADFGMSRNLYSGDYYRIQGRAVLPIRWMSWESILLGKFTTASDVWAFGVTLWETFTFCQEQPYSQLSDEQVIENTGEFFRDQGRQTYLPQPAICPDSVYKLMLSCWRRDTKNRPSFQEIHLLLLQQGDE

COc1cc(OC)c(Cl)c(-c2ccc3c(NC(=O)c4ccc(N5CCNC(C)(C)C5)cc4)n[nH]c3n2)c1Cl [3D185]
inhibition at 0.01 µM (CaMKIV(h); 10 nM): -6% | inhibition at 0.1 µM (CaMKIV(h); 100 nM): -21% | inhibition at 1 µM (CaMKIV(h); 1000 nM): -22% | inhibition at 0.01 µM (Tec(h) activated; 10 nM): 3% | inhibition at 0.1 µM (Tec(h) activated; 100 nM): 9% | inhibition at 1 µM (Tec(h) activated; 1000 nM): 23% | inhibition at 0.01 µM (PKCζ(h); 10 nM): -11% | inhibition at 0.1 µM (PKCζ(h); 100 nM): 7% | inhibition at 1 µM (PKCζ(h); 1000 nM): -22% | inhibition at 0.01 µM (DDR2(h); 10 nM): 0% | inhibition at 0.1 µM (DDR2(h); 100 nM): 7% | inhibition at 1 µM (DDR2(h); 1000 nM): 54%
